The record followed here is patent USRE38994E1, “Pyropheophorbides conjugates and their use in photodynamic therapy” (Health Research, Inc., priority 1988, dated 2006).

One data set relates to SMT-F tumor. The data set is described as follows: In vivo tumor photosensitizing activity (photodynamic tumor treatment). To be noted: for Tumor Response Day 1 (Number of non-palpable tumors/Number treated tumors) / Tumor Response Day 7 (Number of non-palpable tumors/Number treated tumors) / Tumor Response Day 30 (Number of non-palpable tumors/Number treated tumors) / Tumor Response Day 90 (Number of non-palpable tumors/Number treated tumors): time interval 24 hours, 135 J/cm^2 laser at 75 mW/cm^2. Further details: species or system DBA/2 mice. The protocol:
When 2-[1-(O-hexyl)ethyl]devinyl pyropheophorbide-a - structure (5) in Scheme 1: S—RO—where R═(CH2)5CH3 and m═H, (formula IIa) synthesized as indicated (5.0 mg) is dissolved in Tween 80 (0.1 ml) and mixed with 10 ml Hanks Balanced Salt Solution (HBSS), a solution of approximately 0.5 mg/ml in […] is produced after filtration through a 0.22 AM Millipore filter. […] […] Alternately, a Xenon arc lamp filtered to emit a broader band width near 670 nm and approximately 283 Joules/cm^2 can be used.
This progresses to frank tumor necrosis over the next few days. […] At 30 days post treatment, six of the 10 tumors remain non-palpable, and one remains tumor-free to 90 days post treatment.

The nature of data set [1]: Normal foot response / skin clearance after light exposure. In kind it is in vivo, albino Swiss mice (HaICR). Conditions: for Normal Foot Response Maximum Reaction (score): same light conditions as tumor treatment, score 0.3 - slight edema, 0 - no reaction. On the procedure: Six albino Swiss mice (HaICR) are injected intravenously with a dose of 0.1 mg/kg body weight of the compound of formula IIa prepared as in Example 1. After approximately 24 h, the hind foot of the animal is exposed to the same dose of either laser light at 660-670 nm (135 Joules/cm^2) or the Xenon arc lamp (283 Joules/cm^2) as above. The reaction of the foot is scored for damage over the next few days to determine the maximum effect, which in this case is a value 0.3 equivalent to slight edema. If the internal between the injection and light treatment is extended to approximately 48 h, the foot reaction is zero (no damage incurred), indicating either clearance or metabolism of the sensitizer.

For the next data set, the system named is tumor. The data set is described as follows: in vivo tumoricidal activity assay. Conditions: injected at a dose of 5 mg/kg.
Setting [2] is: injected dose 0.1 mg/kg, wavelength 659.
The mark [3] stands for this setting: injected dose 0.3 mg/kg, wavelength 659.
Setting [4] is: injected dose 0.3 mg/kg, wavelength 665.
Setting [5] is: injected dose 0.3 mg/kg, wavelength 670.
The mark [6] stands for this setting: injected dose 0.3 mg/kg, wavelength 680.
[7] abbreviates: ten mice, 0.3 mg/kg intravenously, approx. 24 h later laser light at 660-670 nm, 135 Joules/cm^2.
[8] abbreviates: injected dose 0.1 mg/kg, wavelength 660.
[9] abbreviates: injected dose 0.3 mg/kg, wavelength 660.

Molecules are shown by their SMILES.

For `CCCCCCOC(C)c1c(C)c2cc3nc(c4c5[nH]c(cc6nc(cc1[nH]2)C(C)=C6CC)c(C)c5C(=O)C4)[C@@H](CCC(=O)O)[C@@H]3C` (stereo partly shown) [Formula II R5 = —O—(CH2)5CH3 R7 = —CO2H, 2-{1(O-hexyl)ethyl}devinyl pyropheophorbide-a], the “Tumor Response Day 1 (Number of non-palpable tumors/Number treated tumors)” value with SMT-F tumor (injected dose 0.05 mg/kg, wavelength 659) is recorded as 0/40; in the data set on SMT-F tumor (setting [2]), 6/6; in the data set on SMT-F tumor (injected dose 0.3 mg/kg, wavelength 655) it was 0/10; in the data set on SMT-F tumor (setting [3]), 5/5; with SMT-F tumor (setting [4]) it was 10/10; in the data set on SMT-F tumor (setting [5]), 10/10. Also, the “Tumor Response Day 1 (Number of non-palpable tumors/Number treated tumors)” value in the data set with SMT-F tumor (setting [6]) is listed as 1/10. The “Tumor Response Day 7 (Number of non-palpable tumors/Number treated tumors)” value is 6/6 in the data set on SMT-F tumor (setting [2]); 4/5 in the data set with SMT-F tumor (setting [3]); 10/10 in the data set with SMT-F tumor (setting [4]); 10/10 in the data set on SMT-F tumor (setting [5]); 0/10 in the data set on SMT-F tumor (setting [6]). Besides, the “Tumor Response Day 30 (Number of non-palpable tumors/Number treated tumors)” value in the data set on SMT-F tumor (setting [2]) is 1/6; in the data set with SMT-F tumor (setting [3]) it was 0/5; in the data set on SMT-F tumor (setting [4]), 2/10; in the data set on SMT-F tumor (setting [5]), 6/10. In addition, the results for the “Tumor Response Day 90 (Number of non-palpable tumors/Number treated tumors)” value in the data set on SMT-F tumor (setting [2]), in the data set with SMT-F tumor (setting [4]) and with SMT-F tumor (setting [5]) were 1/6, 0/10 and 1/10, respectively. Further, the “Tumor state at 7 days post treatment” value in the data set on SMT-F tumor (setting [7]) was “all tumors remain non-palpable and necrotic”. The “Tumor state the day after light treatment” value in the data set on SMT-F tumor (setting [7]) is given as “all the tumors are seen to be flat (non-palpable)”. Moreover, the “Tumor-free to 90 days post treatment (number of the 10)” value in the data set with SMT-F tumor (setting [7]) is “one”. In the data set with SMT-F tumor (setting [7]), the “Tumors remaining non-palpable at 30 days post treatment” value is “six of the 10”. Further, the “Foot reaction, maximum effect (damage score)” value in data set [1] (0.1 mg/kg intravenously, hind foot exposed after approx. 24 h, 660-670 nm laser 135 Joules/cm^2 or Xenon arc lamp 283 Joules/cm^2, 0.3 equivalent to slight edema) came out at 0.3. Further, the “Foot reaction (damage score)” value in data set [1] (0.1 mg/kg intravenously, interval between injection and light treatment approx. 48 h, zero = no damage incurred) is “zero”. The “Normal Foot Response Maximum Reaction (score)” value in data set [1] (table row of injected dose 0.1 mg/kg, time interval 24 hours) is listed as 0.3; in data set [1] (table row of injected dose 0.3 mg/kg, time interval 48-72 hours), 0.

`C=Cc1c(C)c2cc3nc(c4c5[nH]c(cc6nc(cc1[nH]2)C(C)=C6CC)c(C)c5C(=O)[C@@H]4C(=O)OC)[C@@H](CCC(=O)OC)[C@@H]3C` [Methyl pheophorbide-a]: the “in vivo tumoricidal activity” value with tumor is “inactive”.

Consider `CCCCCCOC(C)c1c(C)c2cc3nc(c4c5[nH]c(cc6nc(cc1[nH]2)C(C)=C6CC)c(C)c5C(=O)C4)[C@@H](CCC(=O)OC)[C@@H]3C` (stereo partly shown) [Methyl-2-{1(O-hexyl)ethyl}-devinyl pyropheophorbide], for which, in the data set with SMT-F tumor (setting [8]), the “Tumor Response Day 1 (Number of non-palpable tumors/Number treated tumors)” value was 5/5 and the “Tumor Response Day 30 (Number of non-palpable tumors/Number treated tumors)” value was 0/5. For the same molecule, in the data set with SMT-F tumor (setting [9]), the “Tumor Response Day 1 (Number of non-palpable tumors/Number treated tumors)” value is on record as 6/6, the “Tumor Response Day 7 (Number of non-palpable tumors/Number treated tumors)” value is 6/6, the “Tumor Response Day 30 (Number of non-palpable tumors/Number treated tumors)” value was 3/6 and the “Tumor Response Day 90 (Number of non-palpable tumors/Number treated tumors)” value is on record as 3/6.
